{"source": "BindingDB's records for PubMed 8968358", "about": "(University of California, 1996)", "biological_target": "Muscarinic acetylcholine receptor M3 (Rattus norvegicus, UniProt P08483)", "sequence (P08483 whole entry)": "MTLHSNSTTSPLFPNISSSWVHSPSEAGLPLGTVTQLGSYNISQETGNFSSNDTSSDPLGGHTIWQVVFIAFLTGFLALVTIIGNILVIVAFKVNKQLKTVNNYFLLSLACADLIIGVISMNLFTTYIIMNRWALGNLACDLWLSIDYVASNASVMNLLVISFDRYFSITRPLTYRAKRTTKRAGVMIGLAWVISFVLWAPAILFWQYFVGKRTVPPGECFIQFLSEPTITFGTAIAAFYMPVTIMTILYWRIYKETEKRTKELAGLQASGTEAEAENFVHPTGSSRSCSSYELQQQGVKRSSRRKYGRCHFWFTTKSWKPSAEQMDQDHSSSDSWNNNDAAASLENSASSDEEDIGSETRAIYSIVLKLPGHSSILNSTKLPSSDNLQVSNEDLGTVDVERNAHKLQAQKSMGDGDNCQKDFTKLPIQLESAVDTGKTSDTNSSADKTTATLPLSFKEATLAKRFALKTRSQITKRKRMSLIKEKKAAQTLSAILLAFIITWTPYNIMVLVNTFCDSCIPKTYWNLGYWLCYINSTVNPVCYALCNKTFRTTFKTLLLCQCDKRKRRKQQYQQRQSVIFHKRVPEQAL", "data": [{"smiles": "C[N+](C)(C)CC#CCN1CCCC1=O", "values": [{"measurement": "Ki", "value": 8.7, "unit": "µM"}]}]}
